# A melting point compilation (Tetko et al.; mined from patent text by program, amines drawn as free bases though some values may be those of a salt)
row,melting point [°C],Compound
1,197 to 200,COC(=O)c1ccc(C)c(-n2c(C)cc(OCc3ccc(F)cc3CNC(=O)Nc3cc(C(C)(C)C)nn3-c3ccc(O)c(Cl)c3)c(Cl)c2=O)c1
2,217 to 218,C1=Cn2cnnc2C(c2ccccc2)c2ccccc21 (stereo not given)
3,117 to 119,COc1ccc(Cc2ncc(CN3CCN(c4ccccc4OC)CC3)c3cc(OC)c(OC)cc23)cc1OC
4,186 to 187,CCOc1ncnc(OC)c1NC(N)=S
5,213 to 214,CC(C)(C)Sc1c(CC(C)(C)C(=O)O)n(Cc2ccc(Cl)cc2)c2ccc(OCc3ccc4ccccc4c3)cc12
6,128 to 129,O=C(O)CCCc1cccc(OCc2cn(-c3ccc(C(F)(F)F)cn3)nc2C2CCCCC2)c1
7,109,O[C@H]1C[C@@H](c2ccccc2)c2ccc(Cl)cc21
8,46 to 54,O=C1CCCC(=O)C1C(=O)c1ccc(Cl)c(OCCn2cnnn2)c1Cl
9,99 to 101,Cc1cn(C(C)C(N)=O)nc1-c1ccccc1 (stereo not given)
10,30 to 35,CC[C@H](CO)Nc1nc(Nc2ccccn2)c2ncn(C(C)C)c2n1
11,220,CC12CCC(C(=Cc3ccc(O)cc3)C1=O)C2(C)C (stereo not given)
12,50 to 52,CCCCCCCCCCCCCCCCCCOc1cccc(C(=O)C(=O)OC)c1
13,132,COc1ccc(C(=O)c2c(-c3ccccc3)sc3cc(OC)ccc23)cc1
14,206 to 207,O=C1c2cccnc2N(N2CCCCC2)C2=NCCN12
15,273 to 275,Cc1ccccc1Nc1nc(N)nc2ccccc12
16,173 to 175,CCCN(CC(=O)Nc1c(SC)nc(C)nc1N(CC)CC)c1ccccc1
17,117 to 118,CCOC(=O)c1cc(-c2ncc(Cl)cc2F)nn1C
18,88 to 89,CCc1ccc(C2COc3c(C)c(C)c(N)c(C)c32)cc1 (stereo not given)
19,137 to 140,CN(C(CCn1c(=O)[nH]c2ccccc2c1=O)C(=O)NO)S(=O)(=O)c1ccc(Oc2cccc(Cl)c2)cc1 (stereo not given)
20,67,CCN(CC)CCNc1ccc(-c2ccnc(Nc3cc(OC)c(OC)c(OC)c3)n2)cn1
21,68 to 70,COC(=O)CC1CC(c2cccc(C3(c4ccc(OC(F)F)cc4)N=C(N)N(C)C3=O)c2)C1 (stereo not given)
22,237 to 238,CN(C)c1ncc(-c2cccc(-n3cnc4cc(-n5cccc5)ccc43)c2)cn1
23,159 to 160,Cn1ncc(/C=C/C(=O)Nc2ccc(Cc3nc(C(N)=O)cs3)cc2)c1-c1ccc(F)cc1

row,melting point [°C],Compound
1,123 to 124,CNC(=O)C1=C(OC(C)C)c2cc(OC)ccc2S1=O (stereo not given)
2,80 to 81,O=C(CBr)c1cc(OCc2ccccc2)no1
3,238 to 240,O=C1CCC(N2Cc3cc(CNC(=O)Nc4ccc(Cl)c(Cl)c4)ccc3C2=O)C(=O)N1 (stereo not given)
4,165 to 169,ClCCCn1c2ccccc2c2cc(-c3nc(C4CC4)no3)ncc21
5,140 to 145,COc1cc2cc(/C=C/c3ccccc3)[nH]c2cc1OCc1ccccc1
6,105 to 110,COC(=O)C=C(Nc1cc(CCCl)c([N+](=O)[O-])cc1OCc1ccccc1)C(F)(F)F
7,78 to 82,Fc1ccc2c(C3CCN(CC4=Cc5ccccc54)CC3)noc2c1
8,246 to 247,CC1(C)Oc2ccc(C#N)cc2C(c2ccc[nH]c2=O)C1O (stereo not given)
9,132 to 133,CC(CC(=O)O)C(=O)N1CCC[C@H]1C(=O)O (stereo not given in full)
10,106 to 108,CC(=O)c1cn(Cc2ccccc2)c(=O)n(Cc2ccc(F)cc2)c1=O
11,95 to 98,CN(CCCNC(=O)NCCSCc1csc(NC(=N)N)n1)CCC(c1ccccc1)c1ccccn1 (stereo not given)
12,164 to 165,O=C(Nc1ccccc1)c1cccc(Nc2cc(Cl)cc(Cl)c2)c1
13,> 246,Fc1ccc2[nH]c3c4ccccc4nc-3cc2c1
14,162,CCCCc1nc2c(C)nc(C)cc2n1-c1ccc(CCOC(=O)NS(=O)(=O)c2ccc(C)cc2)cc1
15,173 to 174,COCc1c(C(=O)OC(C)C)ncc2[nH]c3cccc(OCc4ccccc4)c3c12
16,142,CC(C)C(=N)Nc1cc(F)ccc1N1CCOCC1
17,158 to 160,Cc1cc(SC2=C(O)CC(C3CCCC3)(C3CCCC3)OC2=O)c(C(C)(C)C)cc1CO
18,120 to 122,CCOC(=O)N(c1ccccc1N=NC(NC(=O)CCl)(C(=O)OCC)C(=O)OCC)c1cccc(C)c1C
19,277 to 279,Cc1ccc(NC(=O)CN2C(=O)C3(COc4cc5c(cc43)CCO5)c3ccccc32)c(C)c1 (stereo not given)
20,83 to 85,CN1C(=S)N(C)C2(c3ccccc3)CCCN12 (stereo not given)
21,234,O=S(=O)(c1ccc(O)cc1)c1c(-c2ccccc2)cn2ccccc12
22,166,COc1cc(N)c(Cl)cc1C(=O)N[C@H]1CCN(CCCC(=O)c2cccnc2)C[C@H]1OC (relative stereo)
23,143 to 145,COc1ccc(OC)c2c1C[C@](O)(C1(C)OCCO1)CC21SCCS1

row,melting point [°C],Compound
1,42 to 43,CCCCCCCCCC[C@H](CC(=O)OC(C)(C)C)C(=O)N1C(=O)OC[C@@H]1C(C)C
2,149 to 150,Cc1nc(-c2cn(CCc3ccc(F)cc3)nn2)sc1C(=O)NCc1cccnc1
3,113 to 114,[N-]=[N+]=NCCOc1cc(Cl)cc([N+](=O)[O-])c1N
4,206 to 208,C=CCOc1cc(C(=O)O)cc(N)c1C(=O)c1ccccc1
5,160 to 161,C=Cc1cc(NC(=O)N2CCN(c3cc(F)cc(F)c3)CC2)c(OC)nc1C
6,65,COC(=O)c1cccc(SCc2c(O[C@H](Cn3ccnc3)c3ccccc3)ccc3c2CCCC3=O)c1
7,146 to 148,O=C(Nc1ccccc1)OCC(=O)c1ccccc1
8,202 to 203,COC(=O)COc1ccc2cc3c(c(-c4ccc(OC)cc4)c2c1)CNC3=O
9,148 to 149,O=C(NCCCO)c1cccc(-c2cccn3c(=O)n(Cc4cccc(C(F)(F)F)c4)nc23)c1
10,189 to 191,COc1cnn(C)c(=O)c1Cl
11,87 to 88,COC(=O)CCc1cn(Cc2ccc(O)cc2)nc1-c1ccccc1
12,85,CC(C)(C)c1ccc(OCC(=O)N2Cc3ccc(C(=O)NCc4cccnc4)n3Cc3ccccc32)cc1
13,80 to 82,COC(=O)c1cc(-n2c(OC)nc(C(F)(F)C(F)(F)F)cc2=O)c(F)cc1Cl
14,176 to 178,O=C(Cc1cc2ccccc2[nH]1)Nc1ccc(-n2nc(C(F)(F)F)cc2C(F)(F)F)cc1
15,117 to 118,COc1ccc2c(c1)N(CCCN1CCC(CCO)CC1)c1cccc(S(C)(=O)=O)c1S2
16,99 to 100,CCOCc1cnc(NC(=O)C(Cc2ccc(F)cc2)c2ccc(S(C)(=O)=O)cc2)cn1 (stereo not given)
17,155 to 156,Cc1ccc(S(=O)(=O)Nc2cnc(C3OCCO3)cc2C)cc1
18,174,NC(=O)C(=O)NC(C(=O)O)c1ccco1 (stereo not given)
19,172 to 174,Cc1cc(N(C)C)nc(N)n1
20,118 to 124,CCC(C)(C)c1ccc(OCCCCc2c(O)cc3ccccc3c2C(N)=O)c(C(C)(C)CC)c1
21,201,CSC1C(O)C(CO)OC1n1ccc(N)nc1=O (stereo not given)
22,172 to 174,Cn1ccnc1COc1ccccc1[N+](=O)[O-]
23,> 300,CC1(C)CC(=O)C2=C(C1)NC1=C(C(=O)CC(C)(C)C1)C2c1ccc(Br)c([N+](=O)[O-])c1

row,melting point [°C],Compound
1,135 to 143,CCn1cc(C(=O)O)c(=O)c2cc(F)c(N3CCN(C(=O)OC(OC(=O)c4ccccc4)C(=O)OC(C)C)CC3)cc21 (stereo not given)
2,150 to 151,O=c1nc(-c2cccc(S(=O)(=O)CCCc3ccccc3)n2)sc2ccccc12
3,134 to 135,CCCc1nc(-n2cccc2)c(C(=O)OCC)[nH]1
4,74 to 75,CCOC(=O)c1nn(-c2ccc(C)cc2)nc1-c1ccccc1
5,71 to 72,COc1ccc(COC2C=C(C)C(=NN(C)C)CC(C)(C)C2OC)cc1 (stereo not given)
6,217 to 219,COc1ccc(C2=NN(c3cc(C)c4c(C)nn(C)c4n3)C(=O)[C@H]3CC=CC[C@@H]23)cc1Cl (relative stereo)
7,65 to 70,CN1CC(c2ccc(OC(F)(F)F)cc2)(c2ccc(F)c(-c3cccnc3F)c2)N=C1N (stereo not given)
8,86 to 89,CC[C@@H](C)[C@H](NC(=O)NCCNC(=O)OC(C)(C)C)C(=O)OC
9,215 to 216,CCOCc1nc2c(N)nc3cc(OCc4ccccc4)ccc3c2n1CC(C)(C)O
10,47,CCCCSN(C)C(=O)Nc1ccc(Cl)c(Cl)c1
11,158 to 160,CC(=O)NCC1CN(c2ccc(N3CCC(n4cc(C5(C)CO5)nn4)CC3)c(F)c2)C(=O)O1 (stereo not given)
12,140 to 142,COc1cc(Nc2c(C#N)cnc3cc(C#CCCN4CCOCC4)c(OC)cc23)c(Cl)cc1Cl
13,172 to 178,Cc1[nH]cnc1Cc1cccc2c1OC(C)(C)OC2
14,152 to 156,ICCCn1c2ccccc2c2ccccc21
15,125 to 131,COCCOC(=O)c1ccccc1Nc1nc(Nc2cc3c(cc2OC)CCN(CCO)CC3)ncc1Cl
16,231 to 232,CC(=O)c1sccc1CN1C(=O)C(NC(=O)Nc2cccc(C)c2)N=C(C2CCCCC2)c2ccccc21 (racemic)
17,174 to 177,CCC1(c2ccccc2)CC(N2C(=O)c3ccccc3C2=O)C(=O)NC1=O (stereo not given)
18,133 to 134,CCC(=O)N(C(=O)CC)c1c(C#N)cnn1-c1ccc(Cl)c(Cl)c1Cl
19,122 to 124,CC1=C(C(=O)OCCOc2ccccc2)C(c2ccccc2OC(F)F)c2c(ccnc2OC(C)C)N1 (stereo not given)
20,156 to 158,O=C(O)C(Sc1ccccc1)c1ccc(Oc2ccc(Cl)cc2)cc1 (stereo not given)
21,179 to 180,Cc1cc(Nc2ccccc2)nc(N)n1
22,169 to 171,N#Cc1cnn2c1N(C(=O)CN1CCN(Cc3ccccc3C(F)(F)F)CC1)CC=C2c1cccc(C(F)(F)F)c1

row,Compound,melting point [°C]
1,CN1Cc2c(C#CC(C)(C)O)ncn2-c2cccc(Cl)c2C1=O,194 to 195
2,CN1CCC(N(C)c2ncc3ncnc(Nc4ccc(Cl)c([N+](=O)[O-])c4)c3n2)CC1,210 to 215
3,COn1c(C)nn(-c2cc(F)c(C#N)cc2Cl)c1=O,102
4,CNc1c(S(=O)(=O)C(F)(F)F)c(C#N)nn1-c1c(Cl)cc(C(F)(F)F)cc1Cl,227
